Test results taken from paper PMC4074212, “Tetra- and Pentacyclic Triterpene Acids from the Ancient Anti-inflammatory Remedy Frankincense as Inhibitors of Microsomal Prostaglandin E2 Synthase-1” (Journal of Natural Products, 2014).
“Also recorded” adds a separate entry of the source.

Key:
mPGES-1 = target: T1, mPGES-1 (Homo sapiens, UniProt O14684); assay: cell-free mPGES-1 activity assay (microsomes of IL-1β-stimulated A549 cells, PGE2 formation from PGH2); type: biochemical; details: for inhibition of mPGES-1 activity (in words): tested at / up to 10 μM
T1 construct: using microsomes of IL-1β-stimulated A549 cells as enzyme source; endogenous in cells; host or cells: A549 cells, IL-1β-induced, microsomal fraction
T1 sequence (O14684 1-152): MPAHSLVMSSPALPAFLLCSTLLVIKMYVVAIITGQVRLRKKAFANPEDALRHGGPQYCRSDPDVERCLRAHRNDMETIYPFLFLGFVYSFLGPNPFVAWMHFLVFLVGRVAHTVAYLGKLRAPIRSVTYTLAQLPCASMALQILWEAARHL

COX enzymes = test system: COX enzymes; set-up: method as in PMID 17945191, PMID 20188172, PMID 24354175; details: cited from earlier work
[1] = test system: phorbol ester-induced ear inflammation; set-up: method as in PMID 16621377; details: applied topically, mice; cited from earlier work

Structure (SMILES): CC(C)=CCC[C@H](C(=O)O)[C@@H]1CC[C@]2(C)C3=C(CC[C@@]12C)[C@@]1(C)CC[C@@H](O)C(C)(C)[C@@H]1CC3 [Compound 5, 3-α-hydroxy-8,24-dienetirucallic acid]
- inhibition at 10 µM (mPGES-1; at 10 μM): 96%

Structure (SMILES): CC(=O)O[C@@H]1CC[C@]2(C)C3=C(CC[C@H]2C1(C)C)[C@@]1(C)CC[C@@H]([C@H](CCC=C(C)C)C(=O)O)[C@]1(C)CC3 [Compound 6, 3α-acetoxy-8,24-dienetirucallic acid]
- concentration range of COX enzyme inhibition (COX enzymes): two-digit micromolar range

Structure (SMILES): C=C(C)[C@@H]1CC[C@]2(C)[C@H](CC=C3[C@@H]4[C@@H](C)[C@H](C)CC[C@]4(C)CC[C@]32C)[C@@]1(C)CCC(=O)O [Compound 11, roburic acid]
- inhibition of mPGES-1 activity (in words) (mPGES-1): failed to significantly inhibit; also recorded: not active
- concentration range of COX enzyme inhibition (COX enzymes): two-digit micromolar range

Structure (SMILES): CC(C)[C@@H]1CC[C@]2(C)[C@H](CC=C3[C@@H]4[C@@H](C)[C@H](C)CC[C@]4(C)CC[C@]32C)[C@@]1(C)CCC(=O)O [Compound 12, 4,(23)-dihydroroburic acid]
- inhibition of mPGES-1 activity (in words) (mPGES-1): failed to significantly inhibit; also recorded: not active

Structure (SMILES): CC(C)[C@@H]1CC[C@]2(C)[C@H](CC=C3[C@@H]4CC(C)(C)CC[C@]4(C)CC[C@]32C)[C@@]1(C)CCC(=O)O [Compound 14, 4,(23)-dihydronyctanthic acid]
- inhibition of mPGES-1 activity (in words) (mPGES-1): failed to significantly inhibit; also recorded: inactive

Structure (SMILES): C=C(C)[C@@H]1CC[C@]2(C)CC[C@]3(C)[C@H](CC[C@@H]4[C@@]5(C)CC[C@H](O)[C@](C)(C(=O)O)[C@@H]5CC[C@]43C)[C@@H]12 [Compound 15, Lupeolic acid]
- inhibition of phorbol ester-induced ear inflammation [1]: inhibited

Structure (SMILES): C=C(C)[C@@H]1CC[C@]2(C)CC[C@]3(C)[C@H](CC[C@@H]4[C@@]5(C)CC[C@H](OC(C)=O)[C@](C)(C(=O)O)[C@@H]5CC[C@]43C)[C@@H]12 [Compound 16, 3-O-acetyllupeolic acid]
- inhibition of phorbol ester-induced ear inflammation [1]: inhibited
